From patent US9545393B2, “Methods and compositions for treating pain” (The Board of Trustees of the Leland Stanford Junior …, priority 2012, dated 2017)

System: rats subjected to carrageenan insult to the right hind paw
Assay: Randall-Selitto paw pressure test, carrageenan-induced hyperalgesia in rats
Format: in vivo, rat
Settings: naloxone 1 mg/kg s.c., with or without Alda-1; carrageenan rats
Procedure: Rats. Male Wistar rats (170-190 g) were provided by Charles River Laboratories or Butantan Institute Animal Facility and housed in a temperature-controlled (22±1° C.) and light-controlled (12/12 h light/dark cycle) room. All rats were housed in their surrounding for at least 3 days. Groups of 5-6 rats were used.
Drugs Used. 0.1 ml saline (control), carrageenan (200 μg for rats, 100 μg for mice; Marine Colloids), or prostaglandin E2 (100 ng, Sigma) was administered by intraplantar injection into the right hind paw to induce hyperalgesia. These doses were chosen based on previous studies by our laboratory groups (Aley K O, et al., (2000) Chronic hypersensitivity for inflammatory nociceptor sensitization mediated by the epsilon isozyme of protein kinase C. The Journal of neuroscience: the official journal of the Society for Neuroscience 20: 4680-4685; Konno K, et al., (2008) Crotalphine, a novel potent analgesic peptide from the venom of the South American rattlesnake Crotalus durissus terrificus. Peptides 29: 1293-1304).
Alda-1 dose (2 mg/kg/per injection, dissolved in 50% PEG/50% DMSO) was established in preliminary studies and given in multiple doses due to its estimated short half-life. Alda-1 was injected subcutaneously to the dorsal side of the neck 15 minutes before carrageenan or saline, and again at 30 and 150 minutes after carrageenan, prostaglandin E2 or saline injection. One subset of animals received Alda-1 only 30 and 150 minutes after carrageenan injection. Where indicated, naloxone (1 mg/kg per injection) or vehicle (saline) was given 10 minutes prior to each Alda-1 treatment to the dorsal side of the neck.
Nociception Assessment. The experimental performer was blinded to both genotype and/or treatments. Nociceptive response was assessed by the von Frey method for mice and the Randall-Selitto method for rats immediately before and 180 minutes after carrageenan or prostaglandin E2 injection. Both mice and rats were acclimated to the testing equipment one day before baseline testing.
Randall-Selitto method: Nociceptive threshold was determined using the Randall-Selitto paw pressure test (Ugo-Basile), as previously described (Gutierrez V P, et al., (2008) Crotalphine induces potent antinociception in neuropathic pain by acting at peripheral opioid receptors. European journal of pharmacology 594: 84-92). The baseline values varied between 65-75 g of force. Animals with baseline out of this range (about 10%) were excluded prior to initiating the study in order to achieve uniform testing.

In the case of `C=CCN1CC[C@]23c4c5ccc(O)c4O[C@H]2C(=O)CC[C@@]3(O)[C@H]1C5` [Naloxone, reference compound], the “Effect of naloxone on nociceptive threshold” value was “no effect”.
